Results on 1 molecule are retold here after ChEMBL document CHEMBL1255274, “Microdialysis study of imipenem distribution in the peritoneal fluid of rats with experimental acute pancreatitis” (Antimicrob Agents Chemother, 2008).

Holding throughout (type): ADME, organism-based
What all share (parameters): dose 30 mg/kg, route intravenous

Series [1] can be described thus: Cmax in pancreatitis Sprague-Dawley rat blood at 30 mg/kg, iv after 30 mins.
Series [2] in a line: Cmax in pancreatitis Sprague-Dawley rat peritoneal fluid at 30 mg/kg, iv after 30 mins.
The nature of series [3]: Tmax in pancreatitis Sprague-Dawley rat blood at 30 mg/kg, iv after 30 mins.
Series [4] in a line: Tmax in pancreatitis Sprague-Dawley rat peritoneal fluid at 30 mg/kg, iv after 30 mins.
Series [5] is described as follows: Clearance in pancreatitis Sprague-Dawley rat blood at 30 mg/kg, iv after 30 mins.
The nature of series [6]: Half life in pancreatitis Sprague-Dawley rat blood at 30 mg/kg, iv after 30 mins.
Series [7] in a line: Half life pancreatitis Sprague-Dawley rat peritoneal fluid at 30 mg/kg, iv after 30 mins.
Series [8] in a line: Selectivity ratio of AUC in pancreatitis Sprague-Dawley rat peritoneal fluid to AUC in pancreatitis Sprague-Dawley rat blood at 30 mg/kg, iv after 30 mins. The following applies: read-out: Ratio AUC.

For the molecule `C[C@@H](O)[C@H]1C(=O)N2C(C(=O)O)=C(SCCN=CN)C[C@H]12` [IMIPENEM ANHYDROUS], the figures for the Cmax in series [1] and in series [2] were 53.9 µg/mL and 51.8 µg/mL, respectively. Also, the Tmax was 35 min in series [3] and 36.7 min in series [4]. The molecule further yielded a clearance in series [5] of 1.02 L/h/kg. The half-life in series [6] is 17.3 min; in series [7], 17.6 min. The Kp at 0.5 h in series [8] is 1.08.
